ChEMBL document CHEMBL4152377, “Design and Activity of Specific Hypoxia-Inducible Factor-2α (HIF-2α) Inhibitors for the Treatment of Clear Cell Renal Cell Carcinoma: Discovery of Clinical Candidate ( S)-3-((2,2-Difluoro-1-hydroxy-7-(methylsulfonyl)-2,3-dihydro-1 H-inden-4-yl)oxy)-5-fluorobenzonitrile (PT2385)” (J Med Chem, 2018)
Active and inactive are the calls of the source. The rule behind the calls is not given here.

Experiments:
[1] = Volume of distribution at steady state in Sprague-Dawley rat at 3 mg/kg, iv by UPLC analysis; assay type: ADME, organism-based; conditions: in vivo, read-out: Vdss
[2] = tested on: 786-0; experiment: In vivo inhibition of HIF-2alpha in SCID/Biege mouse xenografted with human 786-O cells assessed as reduction in tumor derived VEGFA protein levels at 10 mg/kg, po bid for 3 days and measured after 12 hrs post last dose by ELISA; assay type: functional, organism-based
[3] = tested on: Mus musculus; experiment: In vivo inhibition of HIF-2alpha in SCID/Biege mouse xenografted with human 786-O cells assessed as reduction in VEGFA mRNA levels at 10 mg/kg, po bid for 3 days and measured after 12 hrs post last dose by qRT-PCR analysis; assay type: functional, organism-based
[4] = tested on: Mus musculus; experiment: In vivo inhibition of HIF-2alpha in SCID/Biege mouse xenografted with human 786-O cells assessed as reduction in CCND1 mRNA levels at 10 mg/kg, po bid for 3 days and measured after 12 hrs post last dose by qRT-PCR analysis; assay type: functional, organism-based
[5] = Volume of distribution at steady state in CD1 mouse at 3 mg/kg, iv by UPLC analysis; assay type: ADME, organism-based; conditions: in vivo, read-out: Vdss
[6] = biological target: hERG (KCNH2) (Homo sapiens, UniProt Q12809); experiment: Inhibition of human ERG expressed in mammalian cells at 10 uM after 3 mins by QPatch clamp assay; assay type: cell-based; conditions: mammalian cells that express human ERG
Chain of hERG (KCNH2) (Q12809 whole entry): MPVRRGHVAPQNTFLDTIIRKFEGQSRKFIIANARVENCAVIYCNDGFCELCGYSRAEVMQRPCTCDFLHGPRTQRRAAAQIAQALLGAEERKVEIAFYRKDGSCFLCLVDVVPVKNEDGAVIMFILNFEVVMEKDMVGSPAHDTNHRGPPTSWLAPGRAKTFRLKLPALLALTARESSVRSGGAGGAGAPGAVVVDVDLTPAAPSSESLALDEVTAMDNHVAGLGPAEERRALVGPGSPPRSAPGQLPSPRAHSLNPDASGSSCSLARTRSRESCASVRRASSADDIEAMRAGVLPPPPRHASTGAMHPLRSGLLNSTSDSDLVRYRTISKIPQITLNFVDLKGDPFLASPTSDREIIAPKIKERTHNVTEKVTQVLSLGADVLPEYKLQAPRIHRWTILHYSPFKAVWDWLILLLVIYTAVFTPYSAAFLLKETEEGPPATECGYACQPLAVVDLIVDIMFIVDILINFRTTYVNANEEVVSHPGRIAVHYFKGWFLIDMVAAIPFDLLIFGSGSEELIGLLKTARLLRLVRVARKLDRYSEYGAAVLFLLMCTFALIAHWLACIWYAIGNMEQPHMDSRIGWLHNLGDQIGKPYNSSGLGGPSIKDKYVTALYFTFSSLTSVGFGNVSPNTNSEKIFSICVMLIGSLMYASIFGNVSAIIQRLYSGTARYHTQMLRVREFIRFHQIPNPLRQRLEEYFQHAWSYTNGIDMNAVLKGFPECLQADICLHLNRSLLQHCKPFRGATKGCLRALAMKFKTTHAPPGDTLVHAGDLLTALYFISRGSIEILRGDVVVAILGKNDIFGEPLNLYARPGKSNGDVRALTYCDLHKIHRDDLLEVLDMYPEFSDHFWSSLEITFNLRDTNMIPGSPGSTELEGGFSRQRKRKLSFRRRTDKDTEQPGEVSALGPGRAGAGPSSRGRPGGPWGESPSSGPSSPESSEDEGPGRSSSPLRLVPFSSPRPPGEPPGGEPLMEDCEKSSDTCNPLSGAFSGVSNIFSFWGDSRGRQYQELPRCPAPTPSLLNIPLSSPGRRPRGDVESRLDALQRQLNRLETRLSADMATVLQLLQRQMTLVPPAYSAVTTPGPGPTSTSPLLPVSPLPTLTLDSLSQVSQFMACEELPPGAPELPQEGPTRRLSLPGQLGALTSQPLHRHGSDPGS

[7] = Clearance in CD1 mouse at 3 mg/kg, iv by UPLC analysis; assay type: ADME, organism-based; conditions: in vivo
[8] = tested on: Canis familiaris; experiment: Oral bioavailability in Beagle dog at 10 mg/kg administered via gavage by UPLC analysis; assay type: ADME, organism-based, Canis lupus familiaris; conditions: in vivo
[9] = Apparent permeability across apical to basolateral side in MDCK-MDR1 cells at 1 uM after 1 hr by LC/MS/MS analysis; assay type: ADME, cell-based, Canis lupus familiaris; conditions: dog
[10] = Clearance in Sprague-Dawley rat at 3 mg/kg, iv by UPLC analysis; assay type: ADME, organism-based; conditions: in vivo
[11] = biological target: T1, Cytochrome P450 2B6 (Homo sapiens, UniProt P20813); experiment: Inhibition of CYP2B6 in human liver microsomes using bupropion as substrate after 10 mins in presence of NADPH by LC-MS/MS analysis; assay type: ADME
T1 sequence (P20813 whole entry): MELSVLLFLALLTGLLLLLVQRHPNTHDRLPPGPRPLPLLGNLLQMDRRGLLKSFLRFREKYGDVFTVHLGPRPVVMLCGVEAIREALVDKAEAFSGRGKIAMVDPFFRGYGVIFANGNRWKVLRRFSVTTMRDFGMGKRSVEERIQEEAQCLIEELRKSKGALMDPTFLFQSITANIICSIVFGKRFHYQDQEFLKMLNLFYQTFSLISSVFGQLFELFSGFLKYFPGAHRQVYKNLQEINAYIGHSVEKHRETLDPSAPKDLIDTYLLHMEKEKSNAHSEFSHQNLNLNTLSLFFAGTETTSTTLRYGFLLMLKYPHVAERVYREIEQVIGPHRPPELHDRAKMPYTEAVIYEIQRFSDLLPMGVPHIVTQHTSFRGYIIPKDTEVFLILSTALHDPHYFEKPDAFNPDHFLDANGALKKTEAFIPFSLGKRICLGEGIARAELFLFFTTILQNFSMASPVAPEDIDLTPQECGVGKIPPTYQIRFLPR

[12] = Plasma concentration in mouse after 12 hrs; assay type: ADME, cell-free
[13] = Protein binding in dog plasma at 10 uM after 4 hrs by LC-MS/MS analysis; assay type: ADME, cell-free, Canis lupus familiaris; conditions: read-out: PPB (converted)
[14] = tested on: Mus musculus; experiment: Toxicity in SCID/Biege mouse xenografted with human 786-O cells assessed as mortality at 10 mg/kg, po bid for 21 days; assay type: organism-based; conditions: in vivo, 504 h
[15] = Protein binding in human plasma at 10 uM after 4 hrs by LC-MS/MS analysis; assay type: ADME, cell-free; conditions: read-out: PPB (converted)
[16] = Intrinsic clearance in monkey liver microsomes at 1 uM measured up to 30 mins by LC-MS/MS analysis; assay type: ADME, Macaca mulatta, microsome; conditions: rhesus monkey, read-out: CLH
[17] = Oral bioavailability in Sprague-Dawley rat at 10 mg/kg administered via gavage by UPLC analysis; assay type: ADME, organism-based; conditions: in vivo
[18] = Intrinsic clearance in dog liver microsomes at 1 uM measured up to 30 mins by LC-MS/MS analysis; assay type: ADME, Canis lupus familiaris, microsome; conditions: read-out: CLH
[19] = Oral bioavailability in CD1 mouse at 10 mg/kg by UPLC analysis; assay type: ADME, organism-based; conditions: in vivo
[20] = Volume of distribution at steady state in Beagle dog at 3 mg/kg, iv by UPLC analysis; assay type: ADME, organism-based, Canis lupus familiaris; conditions: in vivo, read-out: Vdss
[21] = AUCt in CD1 mouse at 10 mg/kg, po by UPLC analysis; assay type: ADME, organism-based; conditions: in vivo
[22] = biological target: Cytochrome P450 2D6 (Homo sapiens, UniProt P10635); experiment: Inhibition of CYP2D6 in human liver microsomes using dextromethorphan as substrate after 10 mins in presence of NADPH by LC-MS/MS analysis; assay type: ADME
Chain of Cytochrome P450 2D6 (P10635 whole entry): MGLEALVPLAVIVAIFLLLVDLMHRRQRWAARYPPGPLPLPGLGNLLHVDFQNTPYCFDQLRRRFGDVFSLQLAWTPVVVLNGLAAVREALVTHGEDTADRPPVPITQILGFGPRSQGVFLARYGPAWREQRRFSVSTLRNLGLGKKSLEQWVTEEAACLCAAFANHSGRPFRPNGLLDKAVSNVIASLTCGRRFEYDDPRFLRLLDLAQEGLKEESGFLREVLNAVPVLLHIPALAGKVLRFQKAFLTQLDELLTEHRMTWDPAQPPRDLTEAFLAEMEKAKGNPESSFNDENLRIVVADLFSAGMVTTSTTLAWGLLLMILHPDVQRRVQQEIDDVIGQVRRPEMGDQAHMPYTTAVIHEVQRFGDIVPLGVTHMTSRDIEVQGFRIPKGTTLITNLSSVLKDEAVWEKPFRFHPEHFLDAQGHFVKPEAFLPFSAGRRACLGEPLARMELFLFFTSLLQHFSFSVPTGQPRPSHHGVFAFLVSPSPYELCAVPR

[23] = biological target: T2, Cytochrome P450 1A2 (Homo sapiens, UniProt P05177); experiment: Inhibition of CYP1A2 in human liver microsomes using phenacetin after 10 mins in presence of NADPH by LC-MS/MS analysis; assay type: ADME
T2 sequence (P05177 whole entry): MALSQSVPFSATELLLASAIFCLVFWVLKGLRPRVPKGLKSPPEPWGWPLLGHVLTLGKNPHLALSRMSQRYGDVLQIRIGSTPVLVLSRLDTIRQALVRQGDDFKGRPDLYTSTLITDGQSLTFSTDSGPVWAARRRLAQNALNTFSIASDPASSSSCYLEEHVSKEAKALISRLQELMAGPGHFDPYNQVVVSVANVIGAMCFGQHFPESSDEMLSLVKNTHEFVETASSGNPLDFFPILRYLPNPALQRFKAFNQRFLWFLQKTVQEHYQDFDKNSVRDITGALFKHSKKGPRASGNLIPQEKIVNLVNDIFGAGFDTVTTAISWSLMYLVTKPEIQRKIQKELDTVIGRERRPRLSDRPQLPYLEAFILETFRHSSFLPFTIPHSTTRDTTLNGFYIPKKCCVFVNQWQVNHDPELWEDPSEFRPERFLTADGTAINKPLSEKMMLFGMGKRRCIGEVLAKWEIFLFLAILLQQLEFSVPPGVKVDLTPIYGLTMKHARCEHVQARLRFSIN

[24] = Protein binding in monkey plasma at 10 uM after 4 hrs by LC-MS/MS analysis; assay type: ADME, cell-free, Macaca mulatta; conditions: rhesus monkey, read-out: PPB (converted)
[25] = Half life in CD1 mouse at 10 mg/kg, po by UPLC analysis; assay type: ADME, organism-based; conditions: in vivo
[26] = Half life in Beagle dog at 10 mg/kg, po via gavage by UPLC analysis; assay type: ADME, organism-based, Canis lupus familiaris; conditions: in vivo
[27] = Half life in Sprague-Dawley rat at 10 mg/kg, po via gavage by UPLC analysis; assay type: ADME, organism-based; conditions: in vivo
[28] = biological target: Cytochrome P450 2C9 (Homo sapiens, UniProt P11712); experiment: Inhibition of CYP2C9 in human liver microsomes using diclofenac as substrate after 10 mins in presence of NADPH by LC-MS/MS analysis; assay type: ADME
Chain of Cytochrome P450 2C9 (P11712 whole entry): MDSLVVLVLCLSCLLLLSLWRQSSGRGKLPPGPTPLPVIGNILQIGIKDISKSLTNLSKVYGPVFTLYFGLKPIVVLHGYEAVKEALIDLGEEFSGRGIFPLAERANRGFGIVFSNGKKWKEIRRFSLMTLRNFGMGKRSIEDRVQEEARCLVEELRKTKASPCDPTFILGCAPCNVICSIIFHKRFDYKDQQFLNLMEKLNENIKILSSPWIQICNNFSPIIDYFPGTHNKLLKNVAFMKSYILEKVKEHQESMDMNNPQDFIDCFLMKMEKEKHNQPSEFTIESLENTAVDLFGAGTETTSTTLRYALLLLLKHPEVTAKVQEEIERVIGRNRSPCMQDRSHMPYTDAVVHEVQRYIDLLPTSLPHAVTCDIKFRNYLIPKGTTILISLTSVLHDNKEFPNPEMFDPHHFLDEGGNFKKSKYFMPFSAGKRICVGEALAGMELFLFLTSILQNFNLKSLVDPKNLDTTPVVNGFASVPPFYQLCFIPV

[29] = AUCt in Sprague-Dawley rat at 10 mg/kg, po via gavage by UPLC analysis; assay type: ADME, organism-based; conditions: in vivo

SMILES | Vd [1] [L/kg] | inhibition [2] | inhibition [3] | inhibition [4] | Vd [5] [L/kg] | inhibition at 0.05 h, 10 µM [6] [%] | clearance [7] [mL/min/kg] | F [8] [%] | Papp A→B at 1 h, 1 µM [9] [×10⁻⁶ cm/s] | clearance [10] [mL/min/kg] | IC50 [11] [µM] | concentration at 12 h [12] [nM] | fraction unbound at 4 h, 10 µM [13] | Activity [14] | fraction unbound at 4 h, 10 µM [15] | CLint scaled at 1 µM [16] [mL/min/kg] | bioavailability [17] [%] | CLint scaled at 1 µM [18] [mL/min/kg] | bioavailability [19] [%] | Vd [20] [L/kg] | further results
N#Cc1cc(F)cc(Oc2ccc3c(c2C(F)F)[C@@H](O)C(F)(F)S3(=O)=O)c1 | 3.5 | Active | Active | Active | 9.5 | 17 | 70.6 | 72 | 2.6 | 27.2 | > 50 | 220 | 0.18 | Non-Toxic | 0.37 | < 4 | 36 | < 5 | 110 | 3.1 | AUC(0-t) [21]: 6.1 µM·h; IC50 [22]: > 50 µM; IC50 [23]: > 50 µM; fraction unbound at 4 h, 10 µM [24]: 0.38; half-life [25]: 6.5 h; half-life [26]: 6.7 h; half-life [27]: 3.7 h; IC50 [28]: 15.7 µM; AUC(0-t) [29]: 5.49 µM·h
CS(=O)(=O)c1ccc(Oc2cc(F)cc(C#N)c2)c2c1[C@H](O)C(F)(F)C2 | 6.24 | Active | Active | Active | 7 | 8.2 | 29.2 | 87 | 2.98 | 34.6 | > 50 | 460 | 0.25 | Non-Toxic | 0.21 | 5.4 | 40 | < 5 | 110 | 8.6 | AUC(0-t) [21]: 16.4 µM·h; IC50 [22]: > 50 µM; IC50 [23]: > 50 µM; fraction unbound at 4 h, 10 µM [24]: 0.26; half-life [25]: 3.3 h; half-life [26]: 11 h; half-life [27]: 3.3 h; IC50 [28]: 23 µM; AUC(0-t) [29]: 5.12 µM·h
